Series [1] concerns A2058 (human metastatic melanoma cells, Rb-negative). Description: CellTiter-Glo cellular proliferation assay, A2058. It is filed as cell-based. The note with it: A2058, 144 h, six days. The method, then:
(§1) Cellular proliferation assays were conducted using the following Rb-negative cancer cell lines: H69 (human small cell lung cancer—Rb-negative) cells or A2058 (human metastatic melanoma cells—Rb-negative). These cells were seeded in Costar (Tewksbury, Mass.) 3093 96 well tissue culture treated white walled/clear bottom plates. Cells were treated Formulas I, II, III, or IV as nine point dose response dilution series from 10 uM to 1 nM. Cells were exposed to compounds and then cell viability was determined after either four (H69) or six (A2058) days as indicated using the CellTiter-Glo® luminescent cell viability assay (CTG; Promega, Madison, Wis., United States of America) following the manufacturer's recommendations. Plates were read on BioTek (Winooski, Vt.) Syngergy2 multi-mode plate reader. The Relative Light Units (RLU) were plotted as a result of variable molar concentration and data was analyzed using Graphpad (LaJolla, Californaia) Prism 5 statistical software to determine the EC50 for each compound.
(In general: In ATP-based viability assays light output follows the ATP content of the culture.)

The subject of series [2] is H69 (human small cell lung cancer, Rb-negative) cells. Description: CellTiter-Glo cellular proliferation assay, H69. It is filed as cell-based. The note with it: NCI-H69, 96 h, four days. As to the method:
as §1

In the next series the test system is HS68 cells. Put plainly: G1 arrest (cellular G1 and S-phase) assay, propidium iodide flow cytometry. It is filed as cell-based. Particulars: Homo sapiens. As to the method: For determination of cellular fractions in various stages of the cell cycle following various treatments, HS68 cells (human skin fibroblast cell line (Rb-positive)) were stained with propidium iodide staining solution and run on Dako Cyan Flow Cytometer. The fraction of cells in G0-G1 DNA cell cycle versus the fraction in S-phase DNA cell cycle was determined using FlowJo 7.2.2 analysis.
Formulas I, II, III, and IV were tested for their ability to arrest HS68 cells at the G1 phase of the cell cycle.
In general terms: Flow cytometry measures light scatter and fluorescence of single cells or particles in a stream.

A further series has as its system WM2664 or tHS68. Put plainly: Proliferation by EdU incorporation, RB-intact CDK4/6-dependent cell line. In kind it is cell-based. Particulars: 24 hours; WM2664 for PD0332991 (300 nM), tHS68 for Formula I and III (300 nM or 1000 nM). As to the method:
(§2) SCLC cells were treated with DMSO or the indicated CDK4/6 inhibitor for 24 hours. The effect of CDK4/6 inhibition on proliferation was measured by EdU incorporation. An RB-intact, CDK4/6-dependent cell line (WM2664 or tHS68) and a panel of RB-negative SCLC cell lines (H69, H82, H209, H345, NCI417, or SHP-77) were analyzed for growth inhibition by the various CDK4/6 inhibitors.

Series [3] has as its system RB-negative SCLC cell lines (H69, H82, H209, H345, NCI417, SHP-77). Description: Proliferation by EdU incorporation, RB-negative SCLC cell lines. In kind it is cell-based. Particulars: 24 hours; PD0332991 300 nM, Formula I and III 300 nM or 1000 nM. As to the method:
as §2

Series [4] concerns CDK4/6-dependent cell lines. The note with it: cited from earlier work.
The test system of series [5] is CDK4/6 independent Rb-null melanoma cell line A2058. The note with it: cited from earlier work.
Series [6] has as its system mice exposed to peri-lethal and lethal TBI. Particulars: compared to untreated controls; cited from earlier work.
Series [7] has as its system HSPC. Put plainly: PK half-life and HSPC cell cycle arrest of PD0332991 in humans. It is filed as in vivo.
Description: When calculated half-life was longer than the duration of the experiment, the half-life was expressed as > the longest incubation time. The calculated half-life is also listed in parentheses.
Series [8] concerns human renal proximal tubule epithelial cells (Rb-positive). Description: Cellular wash-out experiment, renal cells. In kind it is cell-based. The note with it: 300 nM. The method, then:
Alternatively, the same experiment was done using normal Renal Proximal Tubule Epithelial Cells (Rb-positive) obtained from American Type Culture Collection (ATCC, Manassas, Va.). Cells were grown in an incubator at 37° C. in a humidified atmosphere of 5% CO2 in Renal Epithelial Cell Basal Media (ATCC) supplemented with Renal Epithelial Cell Growth Kit (ATCC) in 37° C. humidified incubator.
Upon harvesting cells, samples were stained with propidium iodide staining solution and samples run on Dako Cyan Flow Cytometer. The fraction of cells in G0-G1 DNA cell cycle versus the fraction in S-phase DNA cell cycle was determined using FlowJo 7.2.2 analysis.

For series [9] the following is noted: Grade 3/4 neutropenia and leukopenia; cited from earlier work.
Series [10] deals with HSPC (LKS+) and myeloid progenitor cells (LKS−). Particulars: single dose 150 mg/kg oral gavage, mice; cited from earlier work.
Series [11] has as its system HSPC. Particulars: in humans; cited from earlier work.

Structures are written as SMILES.

As usually defined, the EC50 is the concentration giving half of the maximal effect. A high value points to a need for much substance.

For `O=C1NCC2(CCCCC2)n2c1cc1cnc(Nc3ccc(N4CCNCC4)cn3)nc12` [Formula II, 2′-((5-(piperazin-1-yl)pyridin-2-yl)amino)-7′,8′-dihydro-6′H-spiro[cyclohexane-1,9′-pyrazino[1′,2′:1,5]pyrrolo[2,3-d]pyrimidin]-6′-one], the EC50 in series [1] is 2610 nM; in series [2] it was greater than 3000 nM; in the series with HS68 cells it was 100 nM.
For the compound `CC(C)N1CCN(c2ccc(Nc3ncc4cc5n(c4n3)C3(CCCCC3)CNC5=O)nc2)CC1` [Formula III, 2′-((5-(4-isopropylpiperazin-1-yl)pyridin-2-yl)amino)-7′,8′-dihydro-6′H-spiro[cyclohexane-1,9′-pyrazino[1′,2′:1,5]pyrrolo[2,3-d]pyrimidin]-6′-one], the “effect on proliferation (cells in S phase, EdU) of Rb-positive cell line” value in the series with WM2664 or tHS68 is reported as “inhibits”. For the same compound, the EC50 in [1] is 2690 nM; in series [2], 2920 nM; in the series with HS68 cells it was 80 nM. Further, the “effect on growth (cells in S phase, EdU) of Rb-negative SCLC cell lines” value in series [3] was “does not affect the growth”.
Consider `O=C1NCC2(CCCCC2)n2c1cc1cnc(Nc3ccc(N4CCC(N5CCOCC5)CC4)cn3)nc12` [Formula IV, 2′-((5-(4-morpholinopiperidin-1-yl)pyridin-2-yl)amino)-7′,8′-dihydro-6′H-spiro[cyclohexane-1,9′-pyrazino[1′,2′:1,5]pyrrolo[2,3-d]pyrimidin]-6′-one], for which the EC50 was greater than 3000 nM in [1], greater than 3000 nM in [2] and 25 nM in the series on HS68 cells.
`CC(=O)c1c(C)c2cnc(Nc3ccc(N4CCNCC4)cn3)nc2n(C2CCCC2)c1=O` [PD0332991, 6-acetyl-8-cyclopentyl-5-methyl-2-(5-piperazin-1-yl-pyridin-2-ylammino)-8H-pyrido-[2,3-d]-pyrimidin-7-one]: the IR protection entry in [4] is given as “exhibited IR protective characteristics”. The “effect on proliferation (cells in S phase, EdU) of Rb-positive cell line” value with WM2664 or tHS68 was “inhibits”. In addition, in [5], the G1 arrest result is “did not G1 arrest” and the “protection from IR exposure” value is given as “failed to protect”. The “HSPC protection and survival after TBI” value in series [6] is “protect HSPCs and improve survival of mice”. In addition, the “total time for normal bone marrow function to return” value with HSPC [7] is no less than 7 days. The “time to clear the compound” value in the series on HSPC [7] (5 half-lives × 27 hour half-life) was 6 days. In addition, the “duration of cell cycle arrest of HSPC” value in the series with HSPC [7] (single administration) was “approximately one week”. The “effect on growth (cells in S phase, EdU) of Rb-negative SCLC cell lines” value in [3] was “does not affect the growth”. Also, the “return to baseline levels of cell division after wash out” value in series [8] is reported as “took significantly longer to return to baseline levels of cell division”. Besides, in series [9], the “patients requiring a dose interruption” value is reported as 71% and the “patients requiring a dose reduction” value is on record as 35%. Besides, in series [10], the “duration of sustained reduction in HSPC (LKS+) and myeloid progenitor (LKS−) EdU incorporation” value was “greater than 36 hours”; the “time post oral dosing of return to baseline cell division” value is 48 h. The PK half-life in the series on HSPC [11] was 27 h.

(Values after patent US20210077498A1, “TRANSIENT PROTECTION OF HEMATOPOIETIC STEM AND PROGENITOR CELLS AGAINST IONIZING RADIATION” (G1 Therapeutics, Inc., priority 2015, published 2021).)
